Test results from patent publication US20260200849A1, “CATIONIC LIPIDS AND PREPARATION METHOD THEREOF” (RiboX Therapeutics HK Limited, priority 2024, published 2026).

Tests used:
C57BL/6J mice = experiment: In vivo expression by IV, 1.0 mg/kg luciferase RNA-LNPs, whole-body and organ IVIS luminescence; conditions: Formulation No. 001, RNA No. 331; male C57BL/6J mice, 1.0 mg*kg−1 intravenous, 24-hours post injection
Method in brief: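 Male C57BL/6J mice, 6-8 weeks old (N=3), received 1.0 mg*kg−1 firefly-luciferase RNA-LNPs IV. At 24 h post-dose, luciferin (15 mg/ml) was given IP, and whole-body, liver, spleen, kidney, small and large intestine luminescence was imaged by IVIS.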

[1] = LNP size and polydispersity index (PDI) by dynamic light scattering (Zetasizer); format: physicochemical; conditions: for Size (nm): Formulation No. 001 (Ionizable lipid:DSPC:cholesterol:DMG-PEG2000 = 50:10:38.5:1.5, N/P 6), RNA No. 331; for PDI: Formulation No. 001, RNA No. 331
Description: (§1) The LNP size and polydispersity index (PDI), determined by dynamic light scattering (DLS), and zeta potential were measured by a Zetasizer machine (Malvern). RNA concentration and encapsulation efficacy (EE %) were analyzed by the Quant-IT Ribogreen kit by calculating the percentage encapsulation at 100%—(RNA-LNPs/RNA-LNPs with Triton X-100).

Hep G2 cells [2] = experiment: In vitro toxicity: Hep G2 cell viability by CellTiter-Glo; format: cell-based; conditions: Formulation No. 001, RNA No. 331, 1 μg/mL RNA-LNPs, 72 hours post transfection, cell only = 100%
Description: 2E5 Hep G2 cells were transfected with 1 μg/mL RNA-LNPs. At 72 hours post transfection, cell viability (2-well repeat) was determined with the CellTiter-Glo® reagent kit, according to the kit protocol, measured by a luminometer. Cell only as control (100%).
The cell viability was calculated according to the following formula: […]

IL-6 = experiment: In vivo tolerability by IV: serum IL-6 by Luminex; design: species or system C57BL/6J mice; conditions: Formulation No. 001, RNA No. 331, male C57BL/6J mice, 1.0 mg*kg/1 intravenous; for IL-6 at 2 h: 2 hours post injection; for IL-6 at 24 h: 24 hours post injection
Method in brief: (§2)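 Male C57BL/6J mice aged 6-8 weeks (N=3) received 1.0 mg*kg−1 firefly-luciferase RNA-LNPs intravenously, with PBS as negative control. Serum taken at 2 and 24 h post-injection was assayed for MCP-1 and IL-6 by Luminex.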

Balb/c mice = experiment: In vivo expression by IV, 0.05 mg/kg luciferase RNA-LNPs, IVIS luminescence; conditions: Formulation No. 001, RNA No. 331; female Balb/c mice, 0.05 mg*kg−1 intravenous, 24-hours post injection
Method in brief: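 Female Balb/c mice (7-8 weeks, N=3) received 0.05 mg*kg−1 firefly-luciferase RNA-LNPs IV. Luciferin (15 mg/ml) was given IP at 24 and 72 h post-dose for IVIS whole-body luminescence. A second run imaged whole body, liver and spleen at 24 h only.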

Hep G2 cells [3] = experiment: In vitro expression: luciferase activity in Hep G2 cells transfected with RNA-LNPs; format: cell-based; conditions: Formulation No. 001, RNA No. 331 (firefly-luciferase), 100 ng/mL RNA-LNPs, 72 hours post transfection
Description: 2E5 Hep G2 cells were transfected with 100 ng/mL of RNA-LNPs encoding for firefly-luciferase. At 72 hours post transfection, the cells were washed and lysed. The luciferase expression (2-well repeat) was determined in the cell lysates with the luciferase assay reagent kit (Promega), according to the kit protocol, luciferase activity was measured by a luminometer.

MCP-1 = experiment: In vivo tolerability by IV: serum MCP-1 by Luminex; design: species or system C57BL/6J mice; conditions: Formulation No. 001, RNA No. 331, male C57BL/6J mice, 1.0 mg*kg/1 intravenous; for MCP-1 at 2 h: 2 hours post injection; for MCP-1 at 24 h: 24 hours post injection
Method in brief: as §2

[4] = RNA encapsulation efficacy (EE %) by Quant-IT Ribogreen kit; format: physicochemical; conditions: LNP, Formulation No. 001, RNA No. 331
Description: as §1

Row | Size (nm) [1] [nm] | PDI [1] | EE (%) [4] [%] | Compound | Kidney (p/s) (C57BL/6J mice) | Large intestine (p/s) (C57BL/6J mice) | Liver (p/s) (C57BL/6J mice) | Small intestine (p/s) (C57BL/6J mice) | Spleen (p/s) (C57BL/6J mice) | Whole body (p/s) (C57BL/6J mice) | In vitro cell viability (%) (Mean) (Hep G2 cells [2]) | IL-6 at 2 h (IL-6) [pg/mL] | IL-6 at 24 h (IL-6) [pg/mL] | Liver (p/s) (Mean) (Balb/c mice) | Spleen (p/s) (Mean) (Balb/c mice) | Whole body (p/s) (Mean) (Balb/c mice) | In vitro Expression (Mean) (Hep G2 cells [3]) | MCP-1 at 2 h (MCP-1) [pg/mL] | MCP-1 at 24 h (MCP-1) [pg/mL]
1 | 69.23 | 0.01 | 93.47 | CCCCC/C=C\C/C=C\CCCCCCCCOC(=O)C(COC(=O)NCCN1CCCCC1)NC(=O)OCCCCCCCCOC(=O)C(CCCCCC)CCCCCCCC (stereo not drawn) [Lipid 918] | 1.99E+07 | 8.43E+07 | 4.67E+09 | 6.30E+08 | 3.95E+08 | 5.08E+09 | 85.92 | 9.3 | 4.73 | 4.14E+08 | 7.74E+07 | 1.21E+09 | 1.25E+06 | 880 | 300
2 | 66.17 | 0.02 | 96.20 | CCCCC/C=C\C/C=C\CCCCCCCCOC(=O)C(COC(=O)NCCN1CCCCCC1)NC(=O)OCCCCCCCCOC(=O)C(CCCCCC)CCCCCCCC (stereo not drawn) [Lipid 919] | 1.88E+07 | 1.29E+08 | 3.54E+09 | 6.16E+08 | 6.74E+08 | 6.01E+09 | 82.59 | 25.8 | 5.07 | 5.47E+08 | 2.28E+08 | 1.86E+09 | 4.10E+05 | 1290 | 256
3 | 81.29 | 0.03 | 88.91 | CCCCCCCCCCCOC(=O)CCCCCOC(=O)C(COC(=O)NCCN1CCCCC1)NC(=O)OCCCCCCCCOC(=O)C(CCCCCC)CCCCCCCC (stereo not drawn) [Lipid 923] | 5.13E+06 | 5.94E+07 | 1.44E+09 | 3.01E+08 | 3.85E+08 | 2.42E+09 | 88.59 | 11.9 | 2.37 | 4.09E+08 | 5.03E+07 | 1.57E+09 | 7.34E+05 | 639 | 75
4 | 75.43 | 0.01 | 87.36 | CCCCCCCCC(CCCCCC)C(=O)OCCCCCCCCOC(=O)NC(COC(=O)NCCN1CCCCC1)C(=O)OCCCCCCCCCCC(=O)OCCCCCC (stereo not drawn) [Lipid 928] | 8.93E+06 | 2.23E+07 | 2.41E+09 | 1.61E+08 | 3.25E+08 | 2.17E+09 | 95.03 | 11.9 | 30.5 | 2.35E+08 | 4.80E+07 | 9.65E+08 | 4.72E+05 | 574 | 74.9
5 | 67.82 | 0.01 | 95.55 | CCCCCCCCC(CCCCCC)C(=O)OCCCCCCCCOC(=O)NC(COC(=O)NCCN1CCCCCC1)C(=O)OCCCCCCCCCCC(=O)OCCCCCC (stereo not drawn) [Lipid 929] | 2.14E+07 | 9.97E+07 | 3.67E+09 | 3.16E+08 | 4.12E+08 | 2.83E+09 | 100.37 | 14.7 | 2.1 | 2.99E+08 | 5.00E+07 | 1.02E+09 | 2.24E+05 | 783 | 58.6
6 | 75.47 | 0.02 | 92.12 | CCCCCCCCCC(=O)OCCCCCCCOC(=O)C(COC(=O)NCCN1CCCCC1)NC(=O)OCCCCCCCCOC(=O)C(CCCCCC)CCCCCCCC (stereo not drawn) [Lipid 933] | 6.08E+07 | 9.52E+07 | 3.90E+09 | 6.36E+08 | 5.98E+08 | 3.45E+09 | 95.05 | 68.4 | 8.03 | 6.92E+08 | 1.49E+08 | 2.89E+09 | 1.26E+06 | 1240 | 300
7 | 104.00 | 0.19 | 90.23 | CCCCC/C=C\C/C=C\CCCCCCCCOC(=O)NC(COC(=O)NCCN1CCCCCC1)C(=O)OCCCCCC(=O)OCCCCCCCCCCC (stereo not drawn) [Lipid 939] | 1.21E+07 | 1.70E+08 | 5.86E+07 | 4.96E+08 | 1.18E+08 | 3.50E+09 | 95.74 | 4280 | 9.43 | 2.92E+08 | 1.74E+08 | 1.17E+09 | 3.08E+05 | 2440 | 956
8 | 86.75 | 0.17 | 90.80 | CCCCC/C=C\C/C=C\CCCCCCCCOC(=O)NC(COC(=O)NCCN1CCCCCC1)C(=O)OCCCCCCCOC(=O)CCCCCCCCC (stereo not drawn) [Lipid 944] | 1.54E+07 | 5.53E+07 | 5.27E+08 | 1.93E+08 | 4.76E+08 | 1.06E+09 | 95.62 | 432 | 2.5 | 5.10E+08 | 1.31E+08 | 1.29E+09 | 3.60E+05 | 3640 | 161
9 | 83.18 | 0.01 | 88.46 | CCCCC/C=C\CCOC(=O)CCCCCOC(=O)C(COC(=O)NCCN1CCCCC1)NC(=O)OCCCCCCCCOC(=O)C(CCCCCC)CCCCCCCC (stereo not drawn) [Lipid 954] | 1.53E+08 | 9.03E+08 | 3.01E+09 | 1.69E+09 | 7.74E+08 | 1.08E+10 | 93.41 | 4220 | 8.87 | 8.01E+08 | 9.82E+07 | 2.71E+09 | 4.78E+05 | 4780 | 789
